Like-named read-outs stand apart in the source and are kept apart here.
Legend:
[1] = biological target: T1, GT1a D168A NS3/4A protease (UniProt P27958, C1185S/D1194A, species not given); type: biochemical, Hepatitis C virus; details: read-out: Ki (nM) D168A; Table 6; P4/P4-P5 modified macrocycles
T1 construct: P4/P4-P5 modified macrocycles
Procedure, shortened: (§1)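 Enzyme (GT1a wild type or D168A mutant, 2 nM) was preincubated with inhibitor dilutions for 1 h at room temperature in pH 7.5 Tris buffer with glycerol, DTT, LDAO and 4% DMSO.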

[2] = biological target: GT1a D168A NS3/4A protease; type: biochemical, Hepatitis C virus; details: for Ki (Fold Change) D168A: Table 6, with respect to GT1a wild-type; for Ki (Fold change) GT1a D168A NS3/4A Protease: Table 3, Ki D168A relative to GT1a WT
Procedure, shortened: as §1

[3] = biological target: T2, wild-type GT1a NS3/4A protease (UniProt P27958, C1185S, species not given); type: biochemical, Hepatitis C virus; details: read-out: Ki (nM) GT1a WT; Table 6; P4/P4-P5 modified macrocycles
T2 construct: P4/P4-P5 modified macrocycles
Procedure, shortened: as §1

[4] = rcm bond, 15-membered ring, Zhan 1b, 1,2-DCE, 70.0 °C
[5] = biological target: T3, GT1a D168A NS3/4A protease (UniProt P27958, C1185S/D1194A, species not given); type: biochemical, Hepatitis C virus; details: read-out: Ki (nM) GT1a D168A NS3/4A Protease
T3 construct: Ki (nM) GT1a D168A NS3/4A Protease
Procedure, shortened: as §1

[6] = biological target: T4, GT1a D168A NS3/4A protease (UniProt P27958, D1194A, species not given); type: biochemical, Hepatitis C virus
T4 construct: rows headed: Ki (nM) D168A; Ki D168A; other: D168A variant
Procedure, shortened: as §1

[7] = biological target: T5, wild-type GT1a NS3/4A protease (UniProt P27958); type: biochemical, Hepatitis C virus
T5 construct: Ki WT; other: wild-type HCV NS3/4A protease
Procedure, shortened: as §1

[8] = biological target: T6, wild-type GT1a NS3/4A protease (UniProt P27958, C1185S, species not given); type: biochemical, Hepatitis C virus; details: read-out: Ki (nM) GT1a WT NS3/4A Protease
T6 construct: Ki (nM) GT1a WT NS3/4A Protease
Procedure, shortened: as §1

GT3a NS3/4A protease = biological target: T7, GT3a NS3/4A protease (Hepatitis C virus genotype 3a, UniProt Q81495); experiment: biochemical; details: for Ki (Fold change) GT3a NS3/4A Protease: Table 3, Ki GT3a relative to GT1a WT
T7 construct: drug-resistant variant D168A, and GT3a NS3/4A protease; made in house; host or cells: Escherichia coli BL21(DE3)
T7 sequence (Q81495 1033-1214): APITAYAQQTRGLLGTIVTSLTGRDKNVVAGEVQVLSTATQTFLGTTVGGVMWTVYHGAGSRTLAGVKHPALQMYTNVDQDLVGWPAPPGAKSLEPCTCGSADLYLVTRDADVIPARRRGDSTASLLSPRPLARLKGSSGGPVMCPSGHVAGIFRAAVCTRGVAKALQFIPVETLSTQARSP
Procedure, shortened: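 Protease at 2 nM pre-incubated 1 h at room temperature with increasing inhibitor concentrations in 50 mM Tris, 5% glycerol, 10 mM DTT, 0.6 mM LDAO, 4% DMSO. Three independent data sets per inhibitor and construct.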

[9] = tested on: wild-type HCV replicon in Huh7 cells; experiment: Cell-based drug susceptibility (replicon) assay, wild-type; details: Hepatitis C virus, read-out: Replicon EC50 (nM) WT
Procedure, shortened: (§2)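 Protease variants were introduced by site-directed mutagenesis into a genotype 1b Con1 luciferase replicon containing genotype 1a H77 NS3. Each replicon RNA was electroporated into Huh7 cells. Inhibitor was titrated upward. Luminescence was measured after 96 h.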

[10] = tested on: HCV replicon A156T variant in Huh7 cells; experiment: microbe, parasite or virus in culture; type: cell-based, Hepatitis C virus; details: for EC50: Hepatitis C virus
Procedure, shortened: as §2

[11] = tested on: HCV replicon D168A variant in Huh7 cells; experiment: microbe, parasite or virus in culture; type: cell-based, Hepatitis C virus; details: for EC50: Hepatitis C virus
Procedure, shortened: as §2

[12] = tested on: HCV replicon R155K variant in Huh7 cells; experiment: microbe, parasite or virus in culture; type: cell-based, Hepatitis C virus; details: for EC50: Hepatitis C virus
Procedure, shortened: as §2

[13] = tested on: HCV replicon D168V variant in Huh7 cells; experiment: microbe, parasite or virus in culture; type: cell-based, Hepatitis C virus; details: for EC50: Hepatitis C virus
Procedure, shortened: as §2

[14] = biological target: GT1a R155K NS3/4A protease (UniProt P27958, R1181K, species not given); type: biochemical, Hepatitis C virus
Procedure, shortened: (§3)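 2 nM NS3/4A protease (GT1a, R155K and D168A constructs) pre-incubated 1 h at room temperature with increasing inhibitor concentrations in 50 mM Tris pH 7.5, 5% glycerol, 10 mM DTT, 0.6 mM LDAO, 4% DMSO. Three independent data sets per inhibitor and construct; ΔG of binding derived from Ki as ΔG=RTlnKi.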

[15] = biological target: GT1a R155K NS3/4A protease; type: biochemical, Hepatitis C virus; details: fold change in Ki, R155K relative to WT
Procedure, shortened: as §3

[16] = Huh-7, 96 h, Table 2, Huh7 cells, luciferase 96 h
[17] = Huh-7, 96 h, read-out: Replicon EC50 (nM) A156T, Table 2, Huh7 cells, luciferase 96 h
[18] = Huh-7, read-out: Replicon EC50 (nM) A156T, Table 4
[19] = Table 4, relative to WT replicon
[20] = Huh-7, 96 h, read-out: Replicon EC50 (nM) D168A, Table 2, Huh7 cells, luciferase 96 h
[21] = Huh-7, read-out: Replicon EC50 (nM) D168A, Table 4
[22] = Huh-7, 96 h, read-out: Replicon EC50 (nM) R155K, Table 2, Huh7 cells, luciferase 96 h
[23] = Huh-7, read-out: Replicon EC50 (nM) R155K, Table 4
[24] = Huh-7, 96 h, read-out: Replicon EC50 (nM) D168V, Table 2, Huh7 cells, luciferase 96 h
[25] = Huh-7, read-out: Replicon EC50 (nM) D168V, Table 4

Compound: COc1ccc2nc(C)c(O[C@@H]3C[C@H]4C(=O)N[C@]5(C(=O)NS(=O)(=O)C6(C)CC6)C[C@H]5/C=C\CCCCC[C@H](NC(=O)[C@@H](NC(C)=O)C(C)C)C(=O)N4C3)nc2c1 [Compound P4-P5-4]
- Ki [1]: 141 ± 18 nM
- Ki (Fold Change) D168A [2]: (13) fold
- Ki [3]: 11.1 ± 0.5 nM

Compound: COC(=O)N[C@H](C(=O)N[C@H]1CCCCC/C=C\[C@@H]2C[C@@]2(C(=O)NS(=O)(=O)C2(C)CC2)NC(=O)[C@@H]2C[C@@H](Oc3nc4cc(OC)ccc4nc3C)CN2C1=O)C1CCCC1 [Compound P4-P5-5, Methyl ((S)-1-cyclopentyl-2-(((2R,6S,13aS,14aR,16aS,Z)-2-((7-methoxy-3-methylquinoxalin-2-yl)oxy)-14a-(((1-methylcyclopropyl)sulfonyl)carbamoyl)-5,16-dioxo-1,2,3,5,6,7,8,9,10,11,13a,14,14a,15,16,16a-hexadecahydrocyclopropa[e]pyrrolo[1,2-a][1,4]diazacyclopentadecin-6-yl)amino)-2-oxoethyl)carbamate]
- Ki [1]: 31.6 ± 2.1 nM
- Ki (Fold Change) D168A [2]: (9) fold
- Ki [3]: 3.54 ± 0.13 nM

Compound: COc1ccc2nc(C)c(O[C@@H]3C[C@H]4C(=O)N[C@]5(C(=O)NS(=O)(=O)C6(C)CC6)C[C@H]5/C=C\CCCCC[C@H](NC(=O)[C@@H](NC(C)=O)C(C)(C)C)C(=O)N4C3)nc2c1 [Compound P4-P5-2]
- Ki [1]: 215 ± 16 nM
- Ki (Fold Change) D168A [2]: (9) fold
- Ki [3]: 23.9 ± 1.7 nM

Compound: COC(=O)N[C@H](C(=O)N[C@H]1CCCCC/C=C\[C@@H]2C[C@@]2(C(=O)NS(=O)(=O)C2(C)CC2)NC(=O)[C@@H]2C[C@@H](Oc3nc4cc(OC)ccc4nc3C)CN2C1=O)C(C)C [Compound P4-P5-3, Methyl ((S)-1-(((2R,6S,13aS,14aR,16aS,Z)-2-((7-methoxy-3-methylquinoxalin-2-yl)oxy)-14a-(((1-methylcyclopropyl)sulfonyl)carbamoyl)-5,16-dioxo-1,2,3,5,6,7,8,9,10,11,13a,14,14a,15,16,16a-hexadecahydrocyclopropa[e]pyrrolo[1,2-a][1,4]diazacyclopentadecin-6-yl)amino)-3-methyl-1-oxobutan-2-yl)carbamate]
- Ki [1]: 102 ± 6.8 nM
- Ki (Fold Change) D168A [2]: (8) fold
- Ki [3]: 13 ± 0.8 nM

Compound: CCc1nc2ccc(OC)cc2nc1O[C@@H]1C[C@H]2C(=O)N[C@]3(C(=O)NS(=O)(=O)C4CC4)C[C@H]3/C=C\CCCCC[C@H](NC(=O)OC(C)(C)C)C(=O)N2C1 [Compound 2, tert-Butyl ((2R,6S,13aS,14aR,16aS,Z)-14a-((cyclopropylsulfonyl)carbamoyl)-2-((3-ethyl-7-methoxyquinoxalin-2-yl)oxy)-5,16-dioxo-1,2,3,5,6,7,8,9,10,11,13a,14,14a,15,16,16a-hexadecahydrocyclopropa[e]pyrrolo[1,2-a][1,4]diazacyclopentadecin-6-yl)carbamate]
- ring closure, isolated yield ([4]; 6.0 mM): 53%
- Ki ([5]; Table 1): 82.4 nM
- Ki ([5]; Table 3): 82.4 ± 4.4 nM
- Ki ([6]; read-out: Ki (nM) D168A, Table 8, linear inhibitors): 91 ± 10 nM
- Ki ([6]; read-out: Ki D168A, D168A variant): 91 ± 10 nM
- Ki (Fold change) GT1a D168A NS3/4A Protease [2]: (25) fold
- Ki D168A (fold change) ([2]; fold change in Ki, D168A relative to WT): 46
- Ki ([7]; read-out: Ki (nM) WT, Table 8, linear inhibitors): 2 nM
- Ki ([7]; read-out: Ki WT, wild-type HCV NS3/4A protease): 2 ± 0.1 nM
- Ki ([8]; Table 1): 3.29 nM
- Ki ([8]; Table 3): 3.29 nM
- Ki (GT3a NS3/4A protease): 204 nM
- Ki (Fold change) GT3a NS3/4A Protease (GT3a NS3/4A protease): (62) fold
- EC50 [9, 16]: 0.33 nM
- EC50 ([9]; Huh-7, Table 4): 0.33 nM
- EC50 ([9]; Huh-7, Table 9): 0.33 nM
- EC50 [10, 17]: 9.65 nM
- EC50 [10, 18]: 9.65 nM
- EC50 ([10]; Huh-7, read-out: Replicon EC50 (nM) A156T, Table 9): 9.7 nM
- Replicon EC50 (Fold change) A156T [10, 19]: (29) fold
- Replicon EC50 (Fold change) A156T ([10]; Table 9, relative to WT): (29) fold
- EC50 [11, 20]: 6.31 nM
- EC50 [11, 21]: 6.31 nM
- EC50 ([11]; Huh-7, read-out: Replicon EC50 (nM) D168A, Table 9): 6.3 nM
- Replicon EC50 (Fold change) D168A [11, 19]: (19) fold
- Replicon EC50 (Fold change) D168A ([11]; Table 9, relative to WT): (19) fold
- EC50 [12, 22]: 1.75 nM
- EC50 [12, 23]: 1.75 nM
- EC50 ([12]; Huh-7, read-out: Replicon EC50 (nM) R155K, Table 9): 1.8 nM
- Replicon EC50 (Fold change) R155K [12, 19]: (5) fold
- Replicon EC50 (Fold change) R155K ([12]; Table 9, relative to WT): (5.5) fold
- EC50 [13, 24]: 9.1 nM
- EC50 [13, 25]: 9.1 nM
- EC50 ([13]; Huh-7, read-out: Replicon EC50 (nM) D168V, Table 9): 9.1 nM
- Replicon EC50 (Fold change) D168V [13, 19]: (28) fold
- Replicon EC50 (Fold change) D168V ([13]; Table 9, relative to WT): (28) fold
- Ki ([14]; read-out: Ki (nM) R155K, Table 8, linear inhibitors): 3.1 ± 0.34 nM
- Ki ([14]; read-out: Ki R155K, R155K variant): 3.1 ± 0.34 nM
- Ki R155K (fold change) [15]: 1.6

Compound: COc1ccc2nc(C)c(O[C@@H]3C[C@H]4C(=O)N[C@]5(C(=O)NS(=O)(=O)C6CC6)C[C@H]5/C=C\CCCCC[C@H](NC(=O)OC(C)(C)C)C(=O)N4C3)nc2c1 [Compound 18b, tert-Butyl ((2R,6S,13aS,14aR,16aS,Z)-14a-((cyclopropylsulfonyl)carbamoyl)-2-((7-methoxy-3-methylquinoxalin-2-yl)oxy)-5,16-dioxo-1,2,3,5,6,7,8,9,10,11,13a,14,14a,15,16,16a-hexadecahydrocyclopropa[e]pyrrolo[1,2-a][1,4]diazacyclopentadecin-6-yl)carbamate]
- ring closure, isolated yield ([4]; 6.5 mM): 45%
- Ki ([5]; Table 1): 50.9 nM
- Ki ([5]; Table 3): 50.9 ± 3.7 nM
- Ki (Fold change) GT1a D168A NS3/4A Protease [2]: (15) fold
- Ki ([8]; Table 1): 3.4 nM
- Ki ([8]; Table 3): 3.4 nM
- Ki (GT3a NS3/4A protease): 152 nM
- Ki (Fold change) GT3a NS3/4A Protease (GT3a NS3/4A protease): (45) fold
- EC50 [9, 16]: 0.39 nM
- EC50 ([9]; Huh-7, Table 4): 0.39 nM
- EC50 [10, 17]: 5.95 nM
- EC50 [10, 18]: 5.95 nM
- Replicon EC50 (Fold change) A156T [10, 19]: (15) fold
- EC50 [11, 20]: 4.24 nM
- EC50 [11, 21]: 4.24 nM
- Replicon EC50 (Fold change) D168A [11, 19]: (11) fold
- EC50 [12, 22]: 1.17 nM
- EC50 [12, 23]: 1.17 nM
- Replicon EC50 (Fold change) R155K [12, 19]: (3) fold
- EC50 [13, 24]: 3.17 nM
- EC50 [13, 25]: 3.17 nM
- Replicon EC50 (Fold change) D168V [13, 19]: (8) fold

Reference: patent US11472778B2, “Hepatitis C virus NS3/4A protease inhibitors” (priority 2017, dated 2022)
